Measurements from US20040248919A1, “Fluorinated trienes and their use as rxr modulators” (priority 2001, published 2004).

Tests used:
[1] = tested on: RXR:RAR heterodimer; test: RXR:RAR heterodimer co-transfection assay (RARa Synergy CTF) in CV-1 cells; format: cell-based, human; conditions: for RARa Synergy CTF % Efficacy: agonist efficacy
Source text: In the co-transfection assay, cloned cDNA for one or more IRs (e.g. human RARα, RXRα, or PPARγ), alone or in combination (i.e. for heterodimer assays) under the control of a constitutive promoter (e.g., the SV 40, RSV or CMV promoter) is introduced by transfection (a procedure to introduce exogenous genes into cells) into a background cell substantially devoid of endogenous IRs. These introduced gene(s) direct the recipient cells to make the IR protein(s) of interest. A further gene is also introduced (co-transfected) into the same cells in conjunction with the IR gene(s). This further gene, comprising the cDNA for a reporter protein, such as firefly luciferase (LUC), controlled by an appropriate hormone responsive promoter containing a hormone response element (HRE). This reporter plasmid functions as a reporter for the transcriptional-modulating activity of the target IR(s). Thus, the reporter acts as a surrogate for the products (mRNA then protein) normally expressed by a gene under control of the target receptor(s) and their native hormone(s).
The RXR modulator compounds of the present invention were further tested for activity on RXR heterodimers with RARα utilizing the cotransfection assay in CV-1 cells as described in Example 12B. The RXR:RAR heterodimer cotransfection assays utilized the following expression plasmids and reporter plasmid: pRShRARα (10 ng/well, Giguere et al., 330 Nature, 624 (1987) the disclosure of which is herein incorporated by reference) or pRShRARγ (10 ng/well, Ishikawa et al., 4 Mol. Endocrin, 837 (1990) the disclosure of which is herein incorporated by reference) with Δ-MTV-LUC (50 ng/well, Hollenberg and Evans, 55 Cell, 899 (1988), the disclosure of which is herein incorporated by reference) containing an RARE which is referred to as two copies of the TRE-palindromic response element described in Umesono et al., 336 Nature, 262 (1988), the disclosure of which is herein incorporated by reference. To conduct a RXR:PPARγ heterodimer cotransfection assay, the RXRα receptor expression plasmid, pRShRXRα (10 ng/well), can be cotransfected with the PPARγ expression plasmid, pCMVhPPARγ (10 ng/well), and a reporter plasmid containing three copies of a PPARγ response element (pPREA3-tk-LUC, 50 ng/well; Mukherjee et al. 272 Journ. Biol. Chem., 8071-8076 (1997) and references cited therein, the disclosures of which are herein incorporated by reference).
Cotransfections were performed as described in Example 12B. For determination of agonist activity in the context of the RXR:RAR heterodimer, media containing compounds of the present invention in concentrations ranging from 10^−10 to 10^−5 M were added to the cells. Similarly, the reference compounds all-trans retinoic acid (ATRA)(Sigma Chemical) and TTNPB ((E)-4-[2-(5,6,7,8-tetrahydro-5,5,8,8-tetramethyl-2-naphthalenyl)-1-propenyl]benzoic acid: Hoffman LaRoche, Inc.), known RAR agonist compounds were added at similar concentrations to provide a reference point for analysis of the agonist activity of the compounds of the present invention. Antagonist efficacy and IC50 values were determined as in Example 12B.
RAR suppresses RXR ligand binding and transactivation of typical RXR agonists (e.g., LGD1069, LG100268) via allosteric interactions. Forman, B. M., Umesono, K., Chen, J., & Evans, R. M., Cell 81, 541-550 (1995) and Kurokawa, R., et. al. Nature 371, 528-531 (1994). However, when RAR is occupied, typical RXR agonists activate the heterodimer. Forman, B. M., Umesono, K, Chen, J., & Evans, R. M., Cell 81, 541-550 (1995) and Roy, B., Taneja, R., & Chambon, P., Mol. Cell. Biol. 15, 6481-6487 (1995). To examine the effects of the compounds of the present invention on the transcriptional properties of the RXR:RAR heterodimer, a heterodimer cotransfection assay as described above was employed.

[2] = Metabolic stability in mouse liver microsomes; format: in vitro ADME; conditions: 20 min incubation, 37° C., NADPH
Protocol: A solution containing 1130 μL of 100 mM sodium phosphate buffer, pH 7.4, 20 μL of a 25 mg/mL CD-1 mouse liver microsomal suspension in 100 mM sodium phosphate buffer, pH 7.4, and 830 μL of a 4 mg/mL NADPH solution in 100 mM sodium phosphate buffer, pH 7.4, was prepared in a glass test tube, mixed on a vortexer, and incubated in a shaking water bath at 37° C. for 3 min. A test compound was dissolved in 10% DMSO/90% methanol to a final concentration of 400 μM, and 20 μL was added to the above solution after the 3 min. incubation. The solution was mixed on a vortexer, and incubated at 37° C. in the shaking water bath. After 0, 5, 10 and 20 min incubation, 75 μL aliquots of the incubation solution were removed in triplicate and each aliquot was added to a 75 μL solution that contained 2 μM of an internal standard in 50% acetonitrile/50% 20 mM ZnSO4 and 20 mM NaOH in water. Samples were mixed on a vortexer, and centrifuged at 10° C. for 25 min at 3000 rpm. The supernatant was separated from the microsomal pellet and analyzed for the test compound by electrospray negative ionization using a Micromass Platform LCZ mass spectrometer equipped with a Shimadzu 10AD VP pump, and Shimadzu 10AD UP autosampler. […] Peak area ratios of the test compound to internal standard at each time point were compared to the 0 min. time point to assess metabolic stability. […]

Structure (SMILES)	RARa Synergy CTF fold induction [1]	RARa Synergy CTF % Efficacy [1] [%]	Metabolic stability (mouse microsomes): Difference from reference compound at 20 min. [2] [%]
CCCCOc1c(\C(C)=C/C=C/C(=C/C(=O)O)C(F)(F)F)cc(C(C)C)cc1C(C)C [Example 3, (2Z,4E,6Z)-7-(2-Butoxy-3,5-diisopropylphenyl)-3-trifluoromethyl-octa-2,4,6-trienoic acid]	1	6	–
C/C(=C/C=C(F)/C(C)=C/C(=O)O)c1cc(C(C)(C)C)cc(C(C)(C)C)c1OCC(F)F [Example 1, 7-[3,5-di-tert-butyl-2-(2,2-difluoroethoxy)-phenyl]4-fluoro-3-methyl-octa-2,4,6-trienoic acid]	3	28	29.295
CCOc1c(\C(=C/C=C/C(C)=C/C(=O)O)C(F)(F)F)cc(C(C)(C)C)cc1C(C)(C)C [Example 5, (2E,4E,6E)-3-methyl-7-(2-ethoxy-3,5-di-tert-butylphenyl)-8,8,8-trifluoroocta-2,4,6-trienoic acid]	–	7	–
C/C(=C/C(F)=C/C(C)=C/C(=O)O)c1cc(C(C)(C)C)cc(C(C)(C)C)c1OCC(F)F [Example 2, 7-[3,5-Di-tert-butyl-2-(2,2-difluoroethoxy)-phenyl]-5-fluoro-3-methyl-octa-2,4,6-trienoic acid]	9	112	18.300
CCCCOc1c(\C(C)=C/C=C/C(=C\C(=O)O)C(F)(F)F)cc(C(C)C)cc1C(C)C [Example 4, (2E,4E,6Z)-7-(2-Butoxy-3,5-diisopropylphenyl)-3-trifluoromethyl-octa-2,4,6-trienoic acid]	1	6	–
